Results published in ChEMBL document CHEMBL5506059, “Cyanomethylquinolones as a New Class of Potential Multitargeting Broad-Spectrum Antibacterial Agents” (J Med Chem, 2024).
Values after ≈ are worked out from the molar mass of the structure shown. Active and inactive are the calls of the source. The calls are words filed in the database; no cut-off is given here.

Tests used:
[1] = system: Pseudomonas aeruginosa; assay: Antibacterial activity against Pseudomonas aeruginosa clinical isolate assessed as inhibition of bacterial growth incubated for 24 hrs; type: functional
[2] = system: Klebsiella pneumoniae; assay: Antibacterial activity against Klebsiella pneumoniae clinical isolate assessed as inhibition of bacterial growth incubated for 24 hrs; type: functional
[3] = system: Escherichia coli; assay: Potency index, ratio of norfloxacin MIC to test compound MIC for antibacterial activity against Escherichia coli ATCC 25922 assessed as inhibition of bacterial growth incubated for 24 hrs; type: functional
[4] = system: Escherichia coli; assay: Antibacterial activity against Escherichia coli ATCC 25922 assessed as inhibition of bacterial growth incubated for 24 hrs; type: functional
[5] = system: Escherichia coli; assay: Potency index, ratio of ciprofloxacin MIC to test compound MIC for antibacterial activity against Escherichia coli ATCC 25922 assessed as inhibition of bacterial growth incubated for 24 hrs; type: functional
[6] = system: Staphylococcus aureus; assay: Antibacterial activity against Staphylococcus aureus clinical isolate assessed as inhibition of bacterial growth incubated for 24 hrs; type: functional
[7] = system: Escherichia coli; assay: Antibacterial activity against Escherichia coli clinical isolate assessed as inhibition of bacterial growth incubated for 24 hrs; type: functional
[8] = system: Acinetobacter baumannii; assay: Antibacterial activity against Acinetobacter baumannii clinical isolate assessed as inhibition of bacterial growth incubated for 24 hrs; type: functional
[9] = system: Pseudomonas aeruginosa; assay: Antibacterial activity against Pseudomonas aeruginosa ATCC 27853 assessed as inhibition of bacterial growth incubated for 24 hrs; type: functional
[10] = system: Enterococcus faecalis; assay: Antibacterial activity against Enterococcus faecalis clinical isolate assessed as inhibition of bacterial growth incubated for 24 hrs; type: functional
[11] = system: Staphylococcus aureus; assay: Antibacterial activity against methicillin resistant Staphylococcus aureus clinical isolate assessed as inhibition of bacterial growth incubated for 24 hrs; type: functional
[12] = system: Staphylococcus aureus; assay: Antibacterial activity against Staphylococcus aureus ATCC 25923 assessed as inhibition of bacterial growth incubated for 24 hrs; type: functional
[13] = system: Staphylococcus aureus; assay: Antibacterial activity against Staphylococcus aureus ATCC 29213 assessed as inhibition of bacterial growth incubated for 24 hrs; type: functional
[14] = system: Erythrocyte; assay: Hemolytic activity in human Red blood cells assessed as concentration required for 5% hemolysis measured after 1.5 hrs by absorbance based assay; type: toxicity, cell-based
[15] = system: Staphylococcus aureus; assay: Antibacterial activity against methicillin-resistant Staphylococcus aureus ATCC 43300 assessed as inhibition of bacterial growth incubated for 24 hrs; type: functional
[16] = system: Pseudomonas aeruginosa; assay: Antibiofilm activity in Pseudomonas aeruginosa assessed as biofilm eradication measured after 24 hrs by crystal violet staining based analysis; type: functional, organism-based; conditions: dose 1-2 µg/ml
[17] = system: Calf thymus DNA; assay: Binding affinity to calf thymus DNA assessed as DNA-compound complex formation by measuring increase in absorption of DNA at 260 nm at 0 to 3.3 x 10^-8mol/L by UV absorption spectra based analysis; type: nucleic-acid assay; conditions: Bos taurus; dose 0-3.3 10^-8mol/L
[18] = system: Staphylococcus aureus; assay: Antibacterial activity against methicillin resistant Staphylococcus aureus clinical isolate assessed as inhibition of bacterial growth at 1 times MIC incubated under dark condition and measured upto 5 hrs relative to control; type: functional
[19] = system: Staphylococcus aureus; assay: Resistance development in methicillin resistant Staphylococcus aureus assessed as increase in MIC measured after 20 days; type: functional, organism-based; conditions: time 20.0 day
[20] = system: Pseudomonas aeruginosa; assay: Induction of intracellular ROS generation in Pseudomonas aeruginosa assessed as increase in fluorescence intensity at 2 ug/ml incubated for 6 hrs by DCFH-DA dye based fluorescence analysis; type: functional, organism-based; conditions: dose 2.0 µg/ml
[21] = system: Calf thymus DNA; assay: Competitive binding affinity to calf thymus DNA assessed as displacement of neutral red from DNA-neutral red complex by measuring reduction in absorbance at 540 nm at 0 to 2.9x10^-8 mol/L by UV absorption spectroscopy; type: nucleic-acid assay; conditions: Bos taurus; dose 0-2.9 10^-8mol/L
[22] = system: Staphylococcus aureus; assay: Antibacterial activity against Staphylococcus aureus ATCC 12600 assessed as inhibition of bacterial growth incubated for 24 hrs; type: functional
[23] = system: Calf thymus DNA; assay: Binding affinity to calf thymus DNA assessed as DNA-compound complex formation by measuring hyperchromism at 0 to 3.3 x 10^-8mol/L by UV absorption spectra based analysis; type: nucleic-acid assay; conditions: Bos taurus; dose 0-3.3 10^-8mol/L
[24] = system: Staphylococcus epidermidis; assay: Antibacterial activity against Staphylococcus epidermidis ATCC 12228 assessed as inhibition of bacterial growth incubated for 24 hrs; type: functional
[25] = system: Staphylococcus aureus; assay: Antibacterial activity against Staphylococcus aureus ATCC 6538 assessed as inhibition of bacterial growth incubated for 24 hrs; type: functional
[26] = system: Staphylococcus aureus; assay: Antibacterial activity against Staphylococcus aureus CMCC(B)26003 assessed as inhibition of bacterial growth incubated for 24 hrs; type: functional
[27] = system: Enterococcus faecium; assay: Antibacterial activity against Enterococcus faecium ATCC 19434 assessed as inhibition of bacterial growth incubated for 24 hrs; type: functional
[28] = system: Streptococcus pyogenes; assay: Antibacterial activity against Streptococcus pyogenes ATCC 19615 assessed as inhibition of bacterial growth incubated for 24 hrs; type: functional
[29] = system: Staphylococcus aureus; assay: Antibiofilm activity in methicillin resistant Staphylococcus aureus assessed as biofilm eradication measured after 24 hrs by crystal violet staining based analysis; type: functional, organism-based; conditions: dose 1-2 µg/ml
[30] = system: Enterococcus faecalis; assay: Antibacterial activity against vancomycin-resistant Enterococcus faecalis clinical isolate p1-2007225053 assessed as inhibition of bacterial growth incubated for 24 hrs; type: functional
[31] = system: Pseudomonas aeruginosa; assay: Resistance development in Pseudomonas aeruginosa assessed as increase in MIC measured after 20 days; type: functional, organism-based; conditions: time 20.0 day
[32] = system: Staphylococcus aureus; assay: Antibacterial activity against Staphylococcus aureus CMCC(B)26001 assessed as inhibition of bacterial growth incubated for 24 hrs; type: functional
[33] = system: Streptococcus pneumoniae; assay: Antibacterial activity against Streptococcus pneumoniae ATCC 6305 assessed as inhibition of bacterial growth incubated for 24 hrs; type: functional
[34] = Hemolytic activity in human Red blood cells at 256 ug/ml measured after 1.5 hrs by absorbance based assay relative to control; type: toxicity, cell-based, Erythrocyte; conditions: red blood cells (erythrocytes), at 256 µg/mL, read-out: Activity
[35] = system: Calf thymus DNA; assay: Binding affinity to calf thymus DNA assessed as disruption of DNA confirmation by measuring blue shift at 0 to 3.3x10^-8mol/L by UV absorption spectra based analysis; type: nucleic-acid assay; conditions: Bos taurus; dose 0-3.3 10^-8mol/L
[36] = system: Pseudomonas aeruginosa; assay: Induction of intracellular ROS generation in Pseudomonas aeruginosa assessed as increase in fluorescence intensity at 2 ug/ml incubated for 6 hrs in presence of N-acetyl-L-cysteine by DCFH-DA dye based fluorescence analysis; type: functional, organism-based; conditions: dose 2.0 µg/ml
[37] = system: Staphylococcus aureus; assay: Antibacterial activity against methicillin resistant Staphylococcus aureus assessed as reduction in metabolic activity by measuring reduction in fluorescence intensity at 0.5 to 2 times MIC incubated for 6 hrs by alamar blue assay; type: functional, organism-based
[38] = system: Pseudomonas aeruginosa; assay: Antibacterial activity against Pseudomonas aeruginosa assessed as reduction in metabolic activity by measuring reduction in fluorescence intensity at 0.5 to 2 times MIC incubated for 6 hrs by alamar blue assay; type: functional, organism-based
[39] = system: Enterococcus faecalis; assay: Antibacterial activity against vancomycin-resistant Enterococcus faecalis clinical isolate p1-2007226001 assessed as inhibition of bacterial growth incubated for 24 hrs; type: functional

C[C@H]1COc2c(CC(=O)O)c(F)cc3c(=O)c(C(=O)O)cn1c23
MIC [1]: 0.5 µg/mL (≈ 1.56 µM)
MIC [2]: 8 µg/mL (≈ 24.9 µM)
Ratio [3]: 16
MIC [4]: 0.25 µg/mL (≈ 0.778 µM)
Ratio [5]: 2
MIC [6]: 16 µg/mL (≈ 49.8 µM)
MIC [7]: 0.5 µg/mL (≈ 1.56 µM)
MIC [8]: 1 µg/mL (≈ 3.11 µM)
MIC [9]: 0.5 µg/mL (≈ 1.56 µM)
MIC [10]: 1 µg/mL (≈ 3.11 µM)
MIC [11]: 1 µg/mL (≈ 3.11 µM)
MIC [12]: 32 µg/mL (≈ 99.6 µM)
MIC [13]: 1 µg/mL (≈ 3.11 µM)

C#CCn1cc(C(=O)O)c(=O)c2cc(F)c(CC#N)cc21
HC5 [14]: > 10000 µg/mL
MIC [1]: 0.25 µg/mL (≈ 0.88 µM)
MIC [2]: 2 µg/mL (≈ 7.04 µM)
MIC [15]: 4 µg/mL (≈ 14.1 µM)
Activity [16]: Dose-Dependent Effect
Activity [17]: Active
inhibition (INH) [18]: ~100%
Activity [19]: inactive
Activity [20]: Active
Activity [21]: Active
MIC [22]: 16 µg/mL (≈ 56.3 µM)
MIC [4]: 0.5 µg/mL (≈ 1.76 µM)
MIC [6]: 256 µg/mL (≈ 901 µM)
MIC [7]: 1 µg/mL (≈ 3.52 µM)
Activity [23]: Active
MIC [24]: 4 µg/mL (≈ 14.1 µM)
MIC [25]: 2 µg/mL (≈ 7.04 µM)
MIC [26]: 2 µg/mL (≈ 7.04 µM)
MIC [27]: 4 µg/mL (≈ 14.1 µM)
MIC [8]: 0.5 µg/mL (≈ 1.76 µM)
MIC [28]: 1 µg/mL (≈ 3.52 µM)
Activity [29]: Dose-Dependent Effect
MIC [9]: 1 µg/mL (≈ 3.52 µM)
MIC [30]: 8 µg/mL (≈ 28.1 µM)
Activity [31]: inactive
MIC [32]: 4 µg/mL (≈ 14.1 µM)
MIC [33]: 32 µg/mL (≈ 113 µM)
MIC [10]: 1 µg/mL (≈ 3.52 µM)
MIC [11]: 0.5 µg/mL (≈ 1.76 µM)
MIC [12]: 0.25 µg/mL (≈ 0.88 µM)
MIC [13]: 1 µg/mL (≈ 3.52 µM)
hemolysis at 1.5 h, 256 ug/ml [34]: < 1%
Activity [35]: Active
Activity [36]: inactive
Activity [37]: Active
Activity [38]: Active
MIC [39]: 16 µg/mL (≈ 56.3 µM)
